In ChEMBL document CHEMBL1201862, “PubChem BioAssay data set” (2004):
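Five compound concentrations were applied to cells in 96-well plates for 48 hours; endpoints were derived by simple linear interpolation of the resulting dose-response curve. At the GI50, growth is halved.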 Calls of active or inactive are those of the source. No stated cut-off is given here; in the data, active = GI50 up to about 1.1 µM and inactive = higher.

Key:
Assay in all cases: inhibition of tumour cell growth, NCI panel, 48 h
OVCAR-5 = system: OVCAR-5
786-0 = system: 786-0
RXF 393 = system: RXF 393
SNB-19 = system: SNB-19
HOP-92 = system: HOP-92
SNB-75 = system: SNB-75
HCT-15 = system: HCT-15
NCI/ADR-RES = system: NCI/ADR-RES
Hs-578T = system: Hs-578T
MCF7 = system: MCF7
CCRF-CEM = system: CCRF-CEM
A498 = system: A498
DU-145 = system: DU-145
ACHN = system: ACHN
K562 = system: K562
SF-268 = system: SF-268
NCI-H23 = system: NCI-H23
COLO 205 = system: COLO 205
Malme-3M = system: Malme-3M

Compound | GI50 (OVCAR-5) | GI50 (786-0) | GI50 (RXF 393) | GI50 (SNB-19) | GI50 (HOP-92) | GI50 (SNB-75) | GI50 (HCT-15) [µM] | GI50 (NCI/ADR-RES) | GI50 (Hs-578T) | GI50 (MCF7) | GI50 (CCRF-CEM) | GI50 (A498) | GI50 (DU-145) | GI50 (ACHN) | GI50 (K562) | GI50 (SF-268) | GI50 (NCI-H23) | GI50 (COLO 205) | GI50 (Malme-3M)
CC(=S)NC1C(Oc2ccc3c(C)cc(=O)oc3c2)OC(CO)C(O)C1O (stereo not drawn) | > 100 µM (inactive) | > 10 µM (inactive) | > 100 µM (inactive) | > 100 µM (inactive) | > 100 µM (inactive) | > 100 µM (inactive) | > 100 | > 100 µM (inactive) | > 100 µM (inactive) | > 100 µM (inactive) | > 100 µM (inactive) | > 100 µM (inactive) | > 100 µM (inactive) | > 100 µM (inactive) | > 100 µM (inactive) | – | – | – | –
COc1cc2c(c3c1c(=O)c1ccccc1n3C)C=C([N+](=O)[O-])C(C)(C)O2 | – | 0.328 µM (active) | 0.132 µM (active) | 1.69 µM (inactive) | 0.431 µM (active) | 13.2 µM (inactive) | 0.355 | 2.09 µM (inactive) | 25.6 µM (inactive) | 0.358 µM (active) | 0.468 µM (active) | 0.0253 µM (active) | < 0.0456 µM (active) | 0.0506 µM (active) | 0.441 µM (active) | 0.608 µM (active) | 0.395 µM (active) | 0.0253 µM (active) | –
O=S(=O)(c1ccccc1)C(c1ccc2ccccc2n1)S(=O)(=O)c1ccccc1 | > 100 µM (inactive) | > 100 µM (inactive) | > 100 µM (inactive) | > 100 µM (inactive) | > 100 µM (inactive) | > 100 µM (inactive) | > 100 | > 100 µM (inactive) | > 100 µM (inactive) | > 100 µM (inactive) | – | > 100 µM (inactive) | > 100 µM (inactive) | > 100 µM (inactive) | > 100 µM (inactive) | > 100 µM (inactive) | > 100 µM (inactive) | > 100 µM (inactive) | > 100 µM (inactive)
Oc1cccnc1CN1CCCCC1 | > 100 µM (inactive) | > 100 µM (inactive) | > 100 µM (inactive) | > 100 µM (inactive) | > 100 µM (inactive) | > 100 µM (inactive) | > 100 | > 100 µM (inactive) | > 100 µM (inactive) | > 100 µM (inactive) | – | > 100 µM (inactive) | > 100 µM (inactive) | > 100 µM (inactive) | > 100 µM (inactive) | > 100 µM (inactive) | > 100 µM (inactive) | > 100 µM (inactive) | > 100 µM (inactive)
COc1ccc2c(=O)c3ccoc3[nH]c2c1 | – | > 100 µM (inactive) | > 100 µM (inactive) | > 100 µM (inactive) | > 100 µM (inactive) | > 100 µM (inactive) | > 100 | > 100 µM (inactive) | 80.9 µM (inactive) | > 100 µM (inactive) | > 100 µM (inactive) | > 100 µM (inactive) | > 100 µM (inactive) | > 100 µM (inactive) | > 100 µM (inactive) | > 100 µM (inactive) | > 100 µM (inactive) | > 100 µM (inactive) | –
CC(=N/NC(=S)N(C)C)/C(=N\NC(=S)N(C)C)c1ccccc1 | 2.21 µM (inactive) | 2 µM (inactive) | 1.46 µM (inactive) | 2.56 µM (inactive) | 1.95 µM (inactive) | 2.12 µM (inactive) | 1.21 | 2.47 µM (inactive) | 3.11 µM (inactive) | 2.84 µM (inactive) | – | 1.59 µM (inactive) | 5.46 µM (inactive) | 1.71 µM (inactive) | 5.15 µM (inactive) | 2.07 µM (inactive) | 2.32 µM (inactive) | 1.79 µM (inactive) | 1.75 µM (inactive)
